Two molecules from patent US10596172B2 (Celgene CAR LLC, priority 2008, dated 2020) can be followed below.

The term EC50 denotes the concentration needed to bring the measured effect to its halfway point.

In one assay the target is BTK (Homo sapiens (Human), UniProt Q06187). The experiment in a line: Washout experiment with Ramos cells. The conditions noted are these: 100 nM compound 1 hour, then washout. The assay is classed as cell-based. The procedure, abridged:
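Serum-starved Ramos cells (1 h, 37° C) exposed to 100 nM compound for 1 hour, then washed into compound-free media every 2 hours. At set timepoints cells were stimulated with 1 ug anti-human IgM for 10 minutes on ice. BTK activity was read as PLCγ2 phosphorylation by phospho-specific western blot.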

For assay [1], the system named is B cell lymphoma cell lines. The experiment in a line: B cell lymphoma proliferation assay. The assay is classed as cell-based.
In another assay the target is TEC kinase (Homo sapiens (Human), UniProt P42680). The experiment in a line: Mass spectrometry for TEC kinase (tryptic digest). The assay is classed as binding. The settings on record: 3 hrs at 10x excess. How it is done:
TEC kinase (45 pmols; Invitrogen) was incubated with (I-2) (450 pmols) for 3 hrs at 10× excess prior to tryptic digestion. Iodoacetamide was used as the alkylating agent after compound incubation. […] For tryptic digests a 5 ul aliquot (7.5 pmols) was diluted with 15 ul of 0.1% TFA prior to micro C18 Zip Tipping directly onto the MALDI target using alpha cyano-4-hydroxy cinnamic acid as the matrix (5 mg/ml in 0.1% TFA:Acetonitrile 50:50).
As depicted in FIG. 6, the expected peptide ([…]) to be modified was immediately evident after reaction with I-2 (MI mass of 359.17 Da) at MH+ of 1294.72. The peptide was also quite evident in the control sample as modified by Iodacetamide at MH+ of 992.56. […] There was no evidence of other modified peptides.
For tryptic digests the instrument was set in Reflectron mode with a pulsed extraction setting of 2200. Calibration was done using the Laser Biolabs Pep Mix standard ([…], 1296.69, 1672.92, 2093.09, 2465.20). For CID/PSD analysis the peptide was selected using cursors to set ion gate timing and fragmentation occurred at a laser power about 20% higher and He was used as the collision gas for CID. Calibration for fragments was done using the P14R fragmentation calibration for the Curved field Reflectron.
TEC kinase (45 pmols; Invitrogen) was incubated with (I-4) (450 pmols) for 3 hrs at 10× excess prior to tryptic digestion. Iodoacetamide was used as the alkylating agent after compound incubation. […] For tryptic digests a 5 ul aliquot (7.5 pmols) was diluted with 15 ul of 0.1% TFA prior to micro C18 Zip Tipping directly onto the MALDI target using alpha cyano-4-hydroxy cinnamic acid as the matrix (5 mg/ml in 0.1% TFA:Acetonitrile 50:50).
As depicted in FIG. 7, the expected peptide ([…]) to be modified was immediately evident at MH+ of 1355.72. This is the mass to be expected when compound I-4, with an adduct mass of 420.21, is added to the peptide mass of 935.51. The peptide was also quite evident in the control sample as modified by Iodacetamide at MH^+ of 992.56. […] There was no evidence of other modified peptides. […]

In the next assay the target is JAK3 (Homo sapiens (Human), UniProt P52333). Briefly: Omnia assay for potency assessment against the active form of JAK3. The assay is classed as biochemical. The settings on record: read-out: JAK3 Inhibition.
Setting [2] is: DHL4 B cell lymphoma cell line, read-out: EC50 (μM) DHL4.
Setting [3] is: Homo sapiens, DOHH-2, DOHH2 B cell lymphoma cell line, read-out: EC50 (μM) DOHH2.
[4] abbreviates: Homo sapiens, WSUDLCL2, WSU-DLCL2 B cell lymphoma cell line, read-out: EC50 (μM) WSU-DLCL2.

SMILES strings stand for the structures. Read-outs that look alike come from different tables or passages of the source. A value given as a limit tells only on which side of the number the result lay.

JAK3, sequence (P52333 whole entry): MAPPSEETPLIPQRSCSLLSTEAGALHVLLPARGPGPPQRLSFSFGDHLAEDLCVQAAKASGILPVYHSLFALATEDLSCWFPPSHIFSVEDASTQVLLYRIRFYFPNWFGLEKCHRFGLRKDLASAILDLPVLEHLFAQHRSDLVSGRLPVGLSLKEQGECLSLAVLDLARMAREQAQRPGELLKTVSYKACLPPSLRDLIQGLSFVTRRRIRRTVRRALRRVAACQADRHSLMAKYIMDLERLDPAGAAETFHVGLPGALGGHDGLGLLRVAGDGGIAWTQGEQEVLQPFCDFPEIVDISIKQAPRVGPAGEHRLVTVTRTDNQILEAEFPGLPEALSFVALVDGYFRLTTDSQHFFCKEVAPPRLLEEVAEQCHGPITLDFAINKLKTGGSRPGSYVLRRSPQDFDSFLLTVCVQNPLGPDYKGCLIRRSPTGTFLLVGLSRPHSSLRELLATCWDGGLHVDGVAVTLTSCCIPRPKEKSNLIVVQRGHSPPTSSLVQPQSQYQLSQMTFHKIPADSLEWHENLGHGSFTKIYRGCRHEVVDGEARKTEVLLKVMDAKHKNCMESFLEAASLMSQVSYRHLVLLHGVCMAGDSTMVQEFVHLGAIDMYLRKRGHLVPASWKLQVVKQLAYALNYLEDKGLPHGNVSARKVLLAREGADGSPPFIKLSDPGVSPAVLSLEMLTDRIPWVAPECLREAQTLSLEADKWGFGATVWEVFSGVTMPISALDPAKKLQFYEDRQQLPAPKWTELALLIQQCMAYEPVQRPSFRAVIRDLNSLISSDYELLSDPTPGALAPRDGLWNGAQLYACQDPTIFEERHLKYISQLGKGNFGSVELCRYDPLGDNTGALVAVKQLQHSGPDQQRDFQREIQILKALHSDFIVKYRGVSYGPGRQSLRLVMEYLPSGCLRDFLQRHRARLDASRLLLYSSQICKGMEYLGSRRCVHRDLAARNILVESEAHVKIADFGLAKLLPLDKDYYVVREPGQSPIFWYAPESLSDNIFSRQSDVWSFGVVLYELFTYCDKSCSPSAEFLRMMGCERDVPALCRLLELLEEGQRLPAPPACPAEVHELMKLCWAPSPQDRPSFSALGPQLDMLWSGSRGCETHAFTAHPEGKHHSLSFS
TEC kinase, sequence (P42680 whole entry): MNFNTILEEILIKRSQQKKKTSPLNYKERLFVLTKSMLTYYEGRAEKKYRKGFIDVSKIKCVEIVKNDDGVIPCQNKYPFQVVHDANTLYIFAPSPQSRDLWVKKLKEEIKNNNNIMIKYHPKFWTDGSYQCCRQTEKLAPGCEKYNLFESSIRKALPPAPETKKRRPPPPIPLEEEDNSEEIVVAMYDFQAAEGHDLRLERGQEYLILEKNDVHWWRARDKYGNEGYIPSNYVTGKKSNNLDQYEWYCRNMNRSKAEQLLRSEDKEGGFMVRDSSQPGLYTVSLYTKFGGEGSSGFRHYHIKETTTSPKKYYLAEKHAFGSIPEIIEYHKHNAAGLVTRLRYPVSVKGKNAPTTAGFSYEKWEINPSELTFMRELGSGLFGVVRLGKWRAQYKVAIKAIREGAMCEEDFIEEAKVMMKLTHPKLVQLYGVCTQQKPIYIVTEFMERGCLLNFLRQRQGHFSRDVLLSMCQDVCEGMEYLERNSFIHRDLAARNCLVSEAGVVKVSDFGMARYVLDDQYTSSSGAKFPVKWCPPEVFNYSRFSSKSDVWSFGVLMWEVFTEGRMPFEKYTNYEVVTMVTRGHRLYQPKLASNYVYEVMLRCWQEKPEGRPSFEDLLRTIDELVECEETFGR
BTK, sequence (Q06187 whole entry): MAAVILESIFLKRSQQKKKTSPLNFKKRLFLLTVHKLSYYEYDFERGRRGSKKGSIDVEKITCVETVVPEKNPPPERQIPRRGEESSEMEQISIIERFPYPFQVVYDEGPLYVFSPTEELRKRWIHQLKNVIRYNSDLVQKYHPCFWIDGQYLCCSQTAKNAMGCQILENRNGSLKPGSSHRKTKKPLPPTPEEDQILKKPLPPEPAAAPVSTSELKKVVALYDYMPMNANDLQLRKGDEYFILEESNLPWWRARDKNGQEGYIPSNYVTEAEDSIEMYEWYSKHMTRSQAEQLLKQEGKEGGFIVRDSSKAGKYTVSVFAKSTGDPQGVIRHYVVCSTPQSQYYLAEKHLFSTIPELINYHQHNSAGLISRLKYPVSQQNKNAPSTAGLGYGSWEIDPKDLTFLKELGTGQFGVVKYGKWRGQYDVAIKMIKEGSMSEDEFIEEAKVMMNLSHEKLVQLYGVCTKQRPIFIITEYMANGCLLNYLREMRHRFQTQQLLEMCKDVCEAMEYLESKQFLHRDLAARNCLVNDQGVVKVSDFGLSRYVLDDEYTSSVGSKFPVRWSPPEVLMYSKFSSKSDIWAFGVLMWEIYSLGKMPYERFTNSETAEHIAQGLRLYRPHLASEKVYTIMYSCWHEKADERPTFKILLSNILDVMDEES

Take `C=CC(=O)Nc1cccc(Nc2nc(Nc3ccccc3)ncc2C)c1` [Compound I-7, N-(3-(5-methyl-2-(phenylamino)pyrimidin-4-ylamino)phenyl)acrylamide]: the “BTK Inhibition Type” value at BTK was “irreversible”. Also, the EC50 in assay [1] (setting [2]), in assay [1] (setting [3]) and in assay [1] (setting [4]) was 1 to 10 µM each time. Besides, the “covalent modification of TEC kinase peptide GCLLNFLR (Cys449) by mass spectrometry” value on TEC kinase is “reaction was complete”. Further, the IC50 on JAK3 was < 10 nM.
Consider `Cc1cccc(Nc2nc(Nc3cccc(NC(=O)/C=C/CN(C)C)c3)ncc2F)c1` [Compound I-4, (E)-4-(dimethylamino)-N-(3-(5-fluoro-4-(m-tolylamino)pyrimidin-2-ylamino)phenyl)but-2-enamide], for which the “BTK Inhibition Type” value on BTK is on record as “irreversible”. Further, the EC50 in assay [1] (setting [2]), in assay [1] (setting [3]) and in assay [1] (setting [4]) was 0.1 to 1 µM each time. Besides, on TEC kinase, the “covalent modification of TEC kinase peptide GCLLNFLR (Cys449) by mass spectrometry” value is “reaction was complete”. At JAK3, the IC50 was < 10 nM.
